The target of this assay is T1, human CRHR2-alpha (Homo sapiens, UniProt Q13324).
T1 sequence (Q13324 1-411): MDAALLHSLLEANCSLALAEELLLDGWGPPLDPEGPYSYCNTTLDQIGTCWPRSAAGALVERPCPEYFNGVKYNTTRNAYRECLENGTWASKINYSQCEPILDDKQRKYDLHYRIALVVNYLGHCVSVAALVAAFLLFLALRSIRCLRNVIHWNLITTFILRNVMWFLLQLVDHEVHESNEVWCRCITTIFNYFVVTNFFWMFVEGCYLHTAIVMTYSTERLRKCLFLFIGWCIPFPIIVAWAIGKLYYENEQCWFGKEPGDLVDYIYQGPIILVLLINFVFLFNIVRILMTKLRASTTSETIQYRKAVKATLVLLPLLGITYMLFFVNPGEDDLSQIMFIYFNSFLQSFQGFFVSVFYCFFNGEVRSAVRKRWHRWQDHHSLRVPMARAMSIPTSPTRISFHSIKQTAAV
In words: cAMP functional assay for human CRHR2 (LANCE Ultra cAMP, TR-FRET). It counts as cell-based. The settings on record: CHO-K1 cells expressing human CRHR2-alpha, agonist human urocortin2 at EC80, cAMP; read-out: IC50 against CRHR2. The gist of the method:
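CHO-K1 stable lines; 4,000 cells/well; compound 30 min, 25° C; EC80 agonist (human urocortin2 → CRHR2, CRF → CRHR1) 30 min, 25° C; buffer HBSS/0.1% BSA/0.5 mM IBMX/5 mM Hepes pH 7.4; Eu-cAMP tracer + ULight antibody 60 min; TR-FRET read; IC50 from % inhibition curves.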
For the compound `Cc1ncc(Cl)cc1C(=O)N[C@H]1CC[C@H](Cn2c(=O)n(-c3cc(N(C)C)ccc3C#N)c3ccccc32)CC1` [Example 273, 5-chloro-N-((1r,4r)-4-((3-(2-cyano-5-(dimethylamino)phenyl)-2-oxo-2,3-dihydro-1H-benzo[d]imidazol-1-yl)methyl)cyclohexyl)-2-methylnicotinamide], the IC50 was < 300 nM.
For the compound `Cc1ncc(Cl)cc1C(=O)N[C@H]1CC[C@H](Cn2c(=O)n(-c3ccc4cncn4c3)c3ccccc32)CC1` [Example 274, 5-chloro-N-((1r,4r)-4-((3-(imidazo[1,5-a]pyridin-6-yl)-2-oxo-2,3-dihydro-1H-benzo [d]imidazol-1-yl)methyl)cyclohexyl)-2-methylnico-tinamide], the IC50 was < 300 nM.
Regarding `Cc1ncc(Cl)cc1C(=O)N[C@H]1CC[C@H](Cn2c(=O)n(-c3cnc4c(c3)nnn4C)c3ccccc32)CC1` [Example 275, 5-chloro-2-methyl-N-((1r,4r)-4-((3-(3-methyl-3H-[1,2,3]triazolo[4,5-b]pyridin-6-yl)-2-oxo-2,3-dihydro-1H-benzo [d]imidazol-1-yl)methyl)cyclohexyl)nicotinamide], the IC50 was < 300 nM.
For the compound `Cc1ncc(Cl)cc1C(=O)N[C@H]1CC[C@H](Cn2c(=O)n(-c3ccc4c(c3)nnn4CCO)c3ccccc32)CC1` [Example 276, 5-chloro-N-((1r,4r)-4-((3-(1-(2-hydroxyethyl)-1H-benzo[d][1,2,3]triazol-5-yl)-2-oxo-2,3-dihydro-1H-benzo[d]imidazol-1-yl)methyl)cyclohexyl)-2-methylnicotinamide], the IC50 was < 300 nM.
As to `CCn1c(=O)oc2cc(-n3c(=O)n(C[C@H]4CC[C@H](NC(=O)c5cc(Cl)cnc5C)CC4)c4ccccc43)cnc21` [Example 277, 5-chloro-N-((1r,4r)-4-((3-(3-ethyl-2-oxo-2,3-dihydro-oxazolo[4,5-b]pyridin-6-yl)-2-oxo-2,3-dihydro-1H-benzo [d]imidazol-1-yl)methyl)cyclohexyl)-2-methylnico-tinamide], the IC50 is < 300 nM.
For `Cc1ncc(Cl)cc1C(=O)N[C@H]1CC[C@H](Cn2c(=O)n(-c3ccc4ncnn4c3)c3ccccc32)CC1` [Example 278, N-((1r,4r)-4-((3-([1,2,4]triazolo [1,5-a]pyridin-6-yl)-2-oxo-2,3-dihydro-1H-benzo[d]imidazol-1-yl)methyl)cyclohexyl)-5-chloro-2-methylnicotinamide], the IC50 was < 300 nM.
The figure for `Cc1ncc(Cl)cc1C(=O)N[C@H]1CC[C@H](Cn2c(=O)n(-c3ccc(C4CCC4)nc3)c3ccccc32)CC1` [Example 279, 5-chloro-N-((1r,4r)-4-((3-(6-cyclobutylpyridin-3-yl)-2-oxo-2,3-dihydro-1H-benzo[d]imidazol-1-yl)methyl)cyclohexyl)-2-methylnicotinamide] is < 300 nM; for `O=C(N[C@H]1CC[C@H](Cn2c(=O)n(Cc3ccncc3)c3ccccc32)CC1)c1cc(Cl)cnc1C(F)(F)F` [Example 280, 5-chloro-N-((1r,4r)-4-((2-oxo-3-(pyridin-4-ylmethyl)-2,3-dihydro-1H-benzo[d]imidazol-1-yl)methyl)cyclohexyl)-2-(trifluoromethyl)nicotinamide] it is < 300 nM; for `O=C(N[C@H]1CC[C@H](Cn2c(=O)n(Cc3ccncc3)c3ccccc32)CC1)c1cc(Cl)ccc1C(F)(F)F` [Example 281, 5-chloro-N-((1r,4r)-4-((2-oxo-3-(pyridin-4-ylmethyl)-2,3-dihydro-1H-benzo[d]imidazol-1-yl)methyl)cyclohexyl)-2-(trifluoromethyl)benzamide] it is < 300 nM.
Consider `O=C(N[C@H]1CC[C@H](Cn2c(=O)n(Cc3ccccn3)c3ccccc32)CC1)c1cc(Cl)cnc1C(F)(F)F` [Example 282, 5-chloro-N-((1r,4r)-4-((2-oxo-3-(pyridin-2-ylmethyl)-2,3-dihydro-1H-benzo[d]imidazol-1-yl)methyl)cyclohexyl)-2-(trifluoromethyl)nicotinamide], for which the IC50 is < 300 nM.
For `O=C(N[C@H]1CC[C@H](Cn2c(=O)n(Cc3ccccn3)c3ccccc32)CC1)c1cc(Cl)ccc1C(F)(F)F` [Example 283, 5-chloro-N-((1r,4r)-4-((2-oxo-3-(pyridin-2-ylmethyl)-2,3-dihydro-1H-benzo[d]imidazol-1-yl)methyl)cyclohexyl)-2-(trifluoromethyl)benzamide], the IC50 was < 300 nM.
As for `O=C(N[C@H]1CC[C@H](Cn2c(=O)n(Cc3cccnc3)c3ccccc32)CC1)c1cc(Cl)cnc1C(F)(F)F` [Example 284, 5-chloro-N-((1r,4r)-4-((2-oxo-3-(pyridin-3-ylmethyl)-2,3-dihydro-1H-benzo[d]imidazol-1-yl)methyl)cyclohexyl)-2-(trifluoromethyl)nicotinamide], the figure is < 300 nM; as for `O=C(Cn1c(=O)n(C[C@H]2CC[C@H](NC(=O)c3cc(Cl)cnc3C(F)(F)F)CC2)c2ccccc21)c1ccccc1` [Example 285, 5-chloro-N-((1r,4r)-4-((2-oxo-3-(2-oxo-2-phenylethyl)-2,3-dihydro-1H-benzo[d]imidazol-1-yl)methyl)cyclohexyl)-2-(trifluoromethyl)nicotinamide], < 300 nM.
For `O=C(Cn1c(=O)n(C[C@H]2CC[C@H](NC(=O)c3cc(Cl)ccc3C(F)(F)F)CC2)c2ccccc21)c1ccccc1` [Example 286, 5-chloro-N-((1r,4r)-4-((2-oxo-3-(2-oxo-2-phenylethyl)-2,3-dihydro-1H-benzo[d]imidazol-1-yl)methyl)cyclohexyl)-2-(trifluoromethyl)benzamide], the IC50 is < 300 nM.
In the case of `O=C(Cn1c(=O)n(C[C@H]2CC[C@H](NC(=O)c3cc(Cl)ccc3Cl)CC2)c2ccccc21)c1ccccc1` [Example 287, 2,5-dichloro-N-((1r,4r)-4-((2-oxo-3-(2-oxo-2-phenylethyl)-2,3-dihydro-1H-benzo[d]imidazol-1-yl)methyl)cyclo-hexyl)benzamide], the IC50 is < 300 nM.
`O=C(N[C@H]1CC[C@H](Cn2c(=O)n(-c3ccccc3Cl)c3ncccc32)CC1)c1cc(Cl)cnc1C(F)(F)F` [Example 288, 5-chloro-N-((1r,4r)-4-((3-(2-chlorophenyl)-2-oxo-2,3-dihydro-1H-imidazo[4,5-b]pyridin-1-yl)methyl)cyclo-hexyl)-2-(trifluoromethyl) nicotinamide]: the IC50 is < 300 nM.
Consider `Cc1cnccc1-n1c(=O)n(C[C@H]2CC[C@H](NC(=O)c3cc(Cl)cnc3C(F)(F)F)CC2)c2ccccc21` [Example 289, 5-chloro-N-((1r,4r)-4-((3-(3-methylpyridin-4-yl)-2-oxo-2,3-dihydro-1H-benzo[d]imidazol-1-yl)methyl)cyclo-hexyl)-2-(trifluoromethyl) nicotinamide], for which the IC50 was < 300 nM.
With `CNC(=O)c1ccc(-n2c(=O)n(C[C@H]3CC[C@H](NC(=O)c4cc(Cl)cnc4C(F)(F)F)CC3)c3cc(F)ccc32)cn1` [Example 290, 5-(3-(((1r,4r)-4-(5-chloro-2-(trifluoromethyl)nico-tinamido)cyclohexyl)methyl)-5-fluoro-2-oxo-2,3-dihydro-1H-benzo[d]imidazol-1-yl)-N-methyl-picolinamide], the IC50 was < 300 nM.
The figure for `N#Cc1ccccc1-n1c(=O)n(C[C@H]2CC[C@H](NC(=O)c3cc(Cl)cnc3C(F)(F)F)CC2)c2ccccc21` [Example 291, 5-chloro-N-((1r,4r)-4-((3-(2-cyanophenyl)-2-oxo-2,3-dihydro-1H-benzo[d]imidazol-1-yl)methyl)cyclo-hexyl)-2-(trifluoromethyl) nicotinamide] is < 300 nM.
